Measurements published in patent US7553864B2, “Compounds for the treatment of inflammatory disorders and microbial diseases” (Schering Corporation, priority 2005, dated 2009).

System: LpxC enzyme
Assay: LpxC enzyme assay (RapidFire high-throughput mass spectrometry)
Assay type: biochemical
Method: The standard LpxC assay consists of 0.2 nM LpxC enzyme, 1.0 μM UDP-3-O—(R-3-hydroxymyristoyl)-N-acetylglucosamine, and test compound, in assay buffer and 2% DMSO. Assay buffer is comprised of 25 mM HEPES, pH 7.3, 150 mM NaCl, 2.0 mM DTT, and 0.01% BSA. The enzyme reaction is carried out in a 96-well assay plate, in a final volume of 102 μL. Solutions of test compounds are prepared in 100% DMSO. Reaction additions, in order, are (1) 2.0 μL compound solution, (2) 80 μL of assay buffer, (3) 10 μL of 10 μM UDP-3-O—(R-3-hydroxymyristoyl)-N-acetylglucosamine (in assay buffer) and, (4) 10 μL of LpxC enzyme (20 nM in assay buffer) to initiate the reaction. In positive control reactions, addition (1) has 2.0 μL of 100% DMSO (without compound); these reactions are used as the total signal (TSB) value. Reactions are incubated at room temperature for 60 minutes when 10 μL of 1 N HCl is added to stop the reaction. The plate is shaken by hand for 10 seconds to ensure complete quenching. Assay plates are sealed with foil tape, and stored at −80° C. for 24-48 hr prior to analysis.
The concentrations of substrate and product in the reaction mixtures are determined with BioTrove's proprietary RapidFire™ high-throughput mass spectrometry (HTMS). Assay mixtures are partially purified with reverse phase chromatography, where they are washed with water containing 5 mM ammonium formate and eluted onto the mass spectrometer in 80% acetonitrile, 20% water, and 5 mM ammonium formate. The mass spectrometry peak areas of the substrate and product are measured to determine the concentration of these analytes. The assay signal is the percentage of substrate that is converted to product. Percent inhibition, % I, in test samples is determined from the following equation: […]

[1] = concentration 0.10 (unit not given)
[2] = concentration 0.20 (unit not given)
[3] = concentration 0.39 (unit not given)
[4] = concentration 0.78 (unit not given)
[5] = concentration 1.56 (unit not given)
[6] = concentration 3.13 (unit not given)
[7] = concentration 6.25 (unit not given)
[8] = concentration 12.50 (unit not given)
[9] = concentration 25 (unit not given)
[10] = concentration 50 (unit not given)

Row | SMILES | LpxC enzyme assay rating (% inhibition at indicated concentrations) [1] | LpxC enzyme assay rating (% inhibition at indicated concentrations) [2] | LpxC enzyme assay rating (% inhibition at indicated concentrations) [3] | LpxC enzyme assay rating (% inhibition at indicated concentrations) [4] | LpxC enzyme assay rating (% inhibition at indicated concentrations) [5] | LpxC enzyme assay rating (% inhibition at indicated concentrations) [6] | LpxC enzyme assay rating (% inhibition at indicated concentrations) [7] | LpxC enzyme assay rating (% inhibition at indicated concentrations) [8] | LpxC enzyme assay rating (% inhibition at indicated concentrations) [9] | LpxC enzyme assay rating (% inhibition at indicated concentrations) [10]
1 | CN(C)C(=O)[C@H](O)[C@@H](O)C(=O)n1ccc2cc(C#Cc3ccccc3)ccc21 [Compound 44] | C (less than 10% inhibition) | B (10-30% inhibition) | C (less than 10% inhibition) | C (less than 10% inhibition) | C (less than 10% inhibition) | B (10-30% inhibition) | B (10-30% inhibition) | A (greater than 30% inhibition) | A (greater than 30% inhibition) | A (greater than 30% inhibition)
2 | CN(C)C(=O)[C@H](O)[C@@H](O)C(=O)Nc1ccc(-c2ccccc2)cc1 [Compound 45] | C (less than 10% inhibition) | C (less than 10% inhibition) | C (less than 10% inhibition) | C (less than 10% inhibition) | C (less than 10% inhibition) | C (less than 10% inhibition) | C (less than 10% inhibition) | C (less than 10% inhibition) | C (less than 10% inhibition) | C (less than 10% inhibition)
3 | CN(C)C(=O)[C@H](O)[C@@H](O)C(=O)Nc1ccc(-c2ccc(C(F)(F)F)cc2)cc1 [Compound 46] | C (less than 10% inhibition) | C (less than 10% inhibition) | C (less than 10% inhibition) | C (less than 10% inhibition) | C (less than 10% inhibition) | C (less than 10% inhibition) | C (less than 10% inhibition) | B (10-30% inhibition) | B (10-30% inhibition) | A (greater than 30% inhibition)
4 | CN(C)C(=O)[C@H](O)[C@@H](O)C(=O)N1CCN(c2ccc(-c3ccccc3)cc2)CC1 [Compound 47] | B (10-30% inhibition) | B (10-30% inhibition) | C (less than 10% inhibition) | B (10-30% inhibition) | C (less than 10% inhibition) | B (10-30% inhibition) | B (10-30% inhibition) | B (10-30% inhibition) | C (less than 10% inhibition) | B (10-30% inhibition)
5 | CCCCc1ccc(NC(=O)[C@H](O)[C@@H](O)C(=O)N(C)C)cc1 [Compound 48] | B (10-30% inhibition) | C (less than 10% inhibition) | C (less than 10% inhibition) | C (less than 10% inhibition) | C (less than 10% inhibition) | B (10-30% inhibition) | C (less than 10% inhibition) | B (10-30% inhibition) | C (less than 10% inhibition) | B (10-30% inhibition)
6 | CCCc1ccc(NC(=O)[C@H](O)[C@@H](O)C(=O)N(C)C)cc1 [Compound 49] | C (less than 10% inhibition) | C (less than 10% inhibition) | B (10-30% inhibition) | C (less than 10% inhibition) | C (less than 10% inhibition) | C (less than 10% inhibition) | C (less than 10% inhibition) | C (less than 10% inhibition) | B (10-30% inhibition) | C (less than 10% inhibition)
7 | CCC(C)c1ccc(NC(=O)[C@H](O)[C@@H](O)C(=O)N(C)C)cc1 (stereo partly shown) [Compound 50] | C (less than 10% inhibition) | C (less than 10% inhibition) | C (less than 10% inhibition) | B (10-30% inhibition) | C (less than 10% inhibition) | C (less than 10% inhibition) | B (10-30% inhibition) | B (10-30% inhibition) | C (less than 10% inhibition) | B (10-30% inhibition)
8 | CN(C)C(=O)[C@H](O)[C@@H](O)C(=O)N1CCC(c2ccc(C(F)(F)F)cc2)CC1 [Compound 51] | B (10-30% inhibition) | C (less than 10% inhibition) | C (less than 10% inhibition) | C (less than 10% inhibition) | B (10-30% inhibition) | C (less than 10% inhibition) | C (less than 10% inhibition) | C (less than 10% inhibition) | B (10-30% inhibition) | B (10-30% inhibition)
9 | CN(C)C(=O)[C@H](O)[C@@H](O)C(=O)N1CCC(c2ccc3ccccc3c2)CC1 [Compound 52] | C (less than 10% inhibition) | C (less than 10% inhibition) | C (less than 10% inhibition) | C (less than 10% inhibition) | C (less than 10% inhibition) | C (less than 10% inhibition) | B (10-30% inhibition) | B (10-30% inhibition) | B (10-30% inhibition) | A (greater than 30% inhibition)
10 | CN(C)C(=O)[C@H](O)[C@@H](O)C(=O)Nc1ccc(Oc2ccccc2)cc1 [Compound 53] | C (less than 10% inhibition) | C (less than 10% inhibition) | C (less than 10% inhibition) | B (10-30% inhibition) | C (less than 10% inhibition) | C (less than 10% inhibition) | C (less than 10% inhibition) | C (less than 10% inhibition) | C (less than 10% inhibition) | C (less than 10% inhibition)
